The values that follow come from ChEMBL document CHEMBL1154343, “Synthesis and biological evaluation of pyrrolopyridazine derivatives as novel HER-2 tyrosine kinase inhibitors” (Bioorg Med Chem Lett, 2009).

Structures are written as SMILES. Bounds are passed on as bounds.

The target in experiment [1] is T1, Epidermal growth factor receptor (Homo sapiens, UniProt P00533). The experiment is described as follows: Inhibition of EGFR by HTRF assay.
In experiment [2] the target is T2, Receptor tyrosine-protein kinase erbB-2 (Homo sapiens, UniProt P04626). The experiment is described as follows: Inhibition of HER2 in human SKBR3 cells by HTRF assay.
T2 sequence (P04626 whole entry): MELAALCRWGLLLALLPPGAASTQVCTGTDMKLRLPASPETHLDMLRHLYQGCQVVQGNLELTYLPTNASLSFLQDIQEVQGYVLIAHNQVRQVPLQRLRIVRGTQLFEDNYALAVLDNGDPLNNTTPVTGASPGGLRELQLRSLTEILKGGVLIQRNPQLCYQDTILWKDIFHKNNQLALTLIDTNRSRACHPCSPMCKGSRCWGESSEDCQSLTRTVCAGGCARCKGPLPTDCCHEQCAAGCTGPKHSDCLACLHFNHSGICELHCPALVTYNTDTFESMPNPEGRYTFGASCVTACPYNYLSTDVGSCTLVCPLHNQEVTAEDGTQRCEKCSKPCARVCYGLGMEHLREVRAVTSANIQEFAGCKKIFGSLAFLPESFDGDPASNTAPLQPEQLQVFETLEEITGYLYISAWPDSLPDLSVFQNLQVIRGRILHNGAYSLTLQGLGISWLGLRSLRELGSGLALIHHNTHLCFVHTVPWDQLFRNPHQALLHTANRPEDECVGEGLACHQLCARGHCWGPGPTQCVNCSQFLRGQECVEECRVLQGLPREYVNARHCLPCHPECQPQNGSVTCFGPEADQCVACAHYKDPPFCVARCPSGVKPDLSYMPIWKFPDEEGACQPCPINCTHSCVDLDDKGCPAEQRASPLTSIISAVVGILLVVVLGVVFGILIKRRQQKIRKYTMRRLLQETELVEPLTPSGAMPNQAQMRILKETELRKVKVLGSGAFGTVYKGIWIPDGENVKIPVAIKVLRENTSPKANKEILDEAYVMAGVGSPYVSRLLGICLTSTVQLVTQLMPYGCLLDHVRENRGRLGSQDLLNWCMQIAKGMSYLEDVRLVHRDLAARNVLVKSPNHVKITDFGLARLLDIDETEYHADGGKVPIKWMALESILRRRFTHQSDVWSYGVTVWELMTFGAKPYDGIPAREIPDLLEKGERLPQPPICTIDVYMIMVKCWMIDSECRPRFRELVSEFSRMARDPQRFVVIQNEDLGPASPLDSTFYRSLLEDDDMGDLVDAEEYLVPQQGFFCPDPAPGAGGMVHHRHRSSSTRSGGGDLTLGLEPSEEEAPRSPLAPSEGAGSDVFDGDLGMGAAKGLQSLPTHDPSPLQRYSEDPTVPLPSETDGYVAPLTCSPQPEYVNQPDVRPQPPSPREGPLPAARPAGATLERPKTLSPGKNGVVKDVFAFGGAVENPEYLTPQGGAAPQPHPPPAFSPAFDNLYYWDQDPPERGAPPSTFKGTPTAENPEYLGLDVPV
The target of experiment [3] is T1, Epidermal growth factor receptor. In words: Inhibition of EGFR in human A431 cells by HTRF assay.
For experiment [4], the target named is T2, Receptor tyrosine-protein kinase erbB-2. The experiment is described as follows: Inhibition of HER2 by HTRF assay.

T1 sequence (P00533 whole entry): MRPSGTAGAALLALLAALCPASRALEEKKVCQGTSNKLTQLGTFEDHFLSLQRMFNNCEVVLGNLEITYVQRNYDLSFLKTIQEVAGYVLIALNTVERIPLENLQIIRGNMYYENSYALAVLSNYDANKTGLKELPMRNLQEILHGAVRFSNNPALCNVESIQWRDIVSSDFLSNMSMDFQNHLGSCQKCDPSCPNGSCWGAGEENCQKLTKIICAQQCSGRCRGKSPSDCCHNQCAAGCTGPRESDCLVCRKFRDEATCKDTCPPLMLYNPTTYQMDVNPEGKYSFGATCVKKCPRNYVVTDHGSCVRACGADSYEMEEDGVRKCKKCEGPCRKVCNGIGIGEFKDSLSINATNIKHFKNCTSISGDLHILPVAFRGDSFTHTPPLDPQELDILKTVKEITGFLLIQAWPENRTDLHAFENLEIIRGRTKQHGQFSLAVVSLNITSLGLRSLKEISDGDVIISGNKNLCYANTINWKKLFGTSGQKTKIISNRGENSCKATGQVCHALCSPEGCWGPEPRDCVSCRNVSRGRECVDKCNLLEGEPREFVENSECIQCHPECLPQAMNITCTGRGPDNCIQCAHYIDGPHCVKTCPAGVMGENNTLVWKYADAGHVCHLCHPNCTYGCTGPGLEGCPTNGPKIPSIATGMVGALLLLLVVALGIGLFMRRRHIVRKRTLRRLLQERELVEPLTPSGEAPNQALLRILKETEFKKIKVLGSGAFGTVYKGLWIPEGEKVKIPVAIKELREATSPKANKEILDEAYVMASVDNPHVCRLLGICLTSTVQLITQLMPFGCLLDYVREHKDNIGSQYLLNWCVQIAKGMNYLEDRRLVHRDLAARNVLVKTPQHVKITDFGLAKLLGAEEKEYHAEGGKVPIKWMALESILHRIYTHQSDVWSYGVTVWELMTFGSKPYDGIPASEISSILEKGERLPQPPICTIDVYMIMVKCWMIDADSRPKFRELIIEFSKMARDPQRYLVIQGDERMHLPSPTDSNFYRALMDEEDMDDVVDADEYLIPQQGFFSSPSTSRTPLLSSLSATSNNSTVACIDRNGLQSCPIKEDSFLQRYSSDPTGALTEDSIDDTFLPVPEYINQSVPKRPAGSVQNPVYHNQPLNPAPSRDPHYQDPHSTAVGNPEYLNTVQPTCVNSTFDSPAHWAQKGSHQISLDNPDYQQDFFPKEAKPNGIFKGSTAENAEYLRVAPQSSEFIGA

What is called IC50 is the midpoint of a concentration-inhibition curve. With `CCOC(=O)c1[nH]c(C)c2cnnc(Nc3ccc(OCc4cccc(F)c4)c(Cl)c3)c12`, the IC50 is above 10000 nM in experiment [1], 934 nM in experiment [2] and 1210 nM in experiment [3].

Turning to `Cc1c(C(=O)NCCN2CCN(C)CC2)[nH]c2cnnc(Nc3ccc(OCc4cccc(F)c4)c(Cl)c3)c12`, the figures for the IC50 in experiment [1], in experiment [2] and in experiment [3] were above 10000 nM, 843 nM and 257 nM, respectively.

Take `CCN(CC)CCNC(=O)c1cc2cnnc(Nc3ccc(OCc4cccc(F)c4)c(Cl)c3)c2[nH]1`: the IC50 is above 10000 nM in experiment [1], 3840 nM in experiment [2] and 77200 nM in experiment [3].

Consider `O=C(NCCN1CCCC1)c1cc2cnnc(Nc3ccc(OCc4cccc(F)c4)c(Cl)c3)c2[nH]1`, for which the IC50 was above 10000 nM in experiment [1], 620 nM in experiment [2] and 15100 nM in experiment [3].

In the case of `Cc1c(C(=O)NCCN2CCOCC2)[nH]c2cnnc(Nc3ccc(OCc4ccccn4)c(Cl)c3)c12`, the IC50 in experiment [2] was above 5000 nM.

Consider `Cc1c(C(=O)NCCCN2CCN(C)CC2)[nH]c2cnnc(Nc3ccc(OCc4cccc(F)c4)c(Cl)c3)c12`, for which the IC50 in experiment [1] is above 10000 nM; in experiment [2], 2240 nM; in experiment [3] it was 980 nM.

With `Cc1c(C(=O)NCCN2CCOCC2)[nH]c2cnnc(Nc3ccc(OCc4cccc(F)c4)c(Cl)c3)c12`, the IC50 in experiment [4] is 4 nM; in experiment [1] it was 5000 nM; in experiment [2], above 5000 nM; in experiment [3], 12700 nM.

With `CCN(CC)CCNC(=O)c1[nH]c2cnnc(Nc3ccc(OCc4cccc(F)c4)c(Cl)c3)c2c1C`, the half-inhibitory concentration (IC50) in experiment [4] turned out to be 7 nM; in experiment [1] it was 1280 nM; in experiment [2], 960 nM; in experiment [3] it was 1160 nM.
